Test results: US20080153705A1, “METHOD FOR INHIBITING DIFFERENTITATION AND FORMATION OF CONIFEROPHYTA MALE FLOWERS BY TREATMENT WITH PROHEXADIONE COMPOUNDS” (Syngenta Crop Protection, Inc., priority 2002, published 2008)

Assays:
[1] = test system: 8-year old young Cryptomeria japonica trees; assay: Foliar spray of prohexadione compound on branches of 8-year old young Cryptomeria japonica trees (Example 1); assay type: in vivo; details: 8-year old trees; for Branches Elongation: control group 24.6 ± 6.4; for Number of male flower clusters: 100 ml foliar spray, control group 136.9 ± 21.6
Protocol: Two 8-year old young Cryptomeria japonica trees (height: 8 m, diameter at breast height: 6 cm) which were in a nursery of an experimental plantation of the department of agriculture of Tottori University and which had formed male flowers every year were used. Three branches were selected at male flower-forming positions of each tree. These branches which were supposed to form the male flowers were treated with the prohexadione compound ([…]) on Jun. 5, 2001 (about one month before the beginning of July when Cryptomeria japonica flower buds were supposed to differentiate and Cryptomeria japonica flower buds were supposed to be formed). In this test, the prohexadione compound was diluted to a concentration shown in Table 3 given below with 60% (v/v) aqueous acetone solution.
The treatment method was as follows: 100 ml of the diluted solution obtained as described above was sprayed on leaves of the branches (50 cm long area from the branch top) with a hand sprayer In a control group, the leaves were treated with only 60% (v/v) aqueous acetone solution.
The concentrations of the prohexadione compound used for the foliar spray treatment were as follows: • Concentration (ppm) • 0.5 • 5 • 50 • 500

[2] = test system: 43-year old Cryptomeria japonica trees; assay: Aerial (helicopter curtain) application of the agent to a forest of 43-year old Cryptomeria japonica trees (Example 2); assay type: in vivo; details: 43-year old trees; for Number of male flower clusters: Table 6 composition (polyoxyethylene castor oil, tetrahydrofurfuryl alcohol, water), 1.8 liters per 10 a by helicopter, control group 2985.8 ± 789.1; for Shoot Elongation: Table 6 composition, control group 80.8 ± 9.4
Protocol: A Cryptomeria japonica forest having 43-year old Cryptomeria japonica trees (height: 16 m, diameter at breast height: 35 cm) was treated in Nirayama experimental plantation of the department of agriculture of Tottori University on Jun. 25, 2001.
The concentration of the agent for inhibiting the formation of Cryptomeria japonica pollen thus sprayed was 50 or 500 ppm.
1.8 liters of each of the above described two compositions was applied to the forest having an area of 10 a by the curtain application method with a helicopter. The aerial application was conducted twice, using 0.9 liter of the composition each time. In a control group, only water free from the active ingredients was used for the aerial application.

Branches Elongation ([1]; 0.5 ppm foliar spray): 25.5 ± 7.2 cm | Elongation growth of the Cryptomeria japonica branches versus control group (in words) ([1]; 0.5 to 500 ppm): substantially unchanged | Branches Elongation ([1]; 5 ppm foliar spray): 26.2 ± 6.5 cm | Branches Elongation ([1]; 50 ppm foliar spray): 24.3 ± 6.3 cm | Branches Elongation ([1]; 500 ppm foliar spray): 25.2 ± 5.5 cm | Shoot Elongation ([2]; 50 ppm, aerial application): 83.3 ± 10.7 cm | Shoot Elongation ([2]; 500 ppm, aerial application): 82.8 ± 11.2 cm
Structure (SMILES): CCOC(=O)C1CC(=O)C(=C(O)C2CC2)C(=O)C1 (stereo not shown)
Number of male flower clusters ([1]; 0.5 ppm in 60% aqueous acetone): 111.6 ± 25.2 | Number of male flower clusters ([1]; 5 ppm in 60% aqueous acetone): 70.4 ± 12.4 | Number of male flower clusters ([1]; 50 ppm in 60% aqueous acetone): 21.2 ± 6.5 | Effect of inhibiting the differentiation and formation of male Cryptomeria japonica flowers (in words) ([1]; 50 ppm or 500 ppm): remarkable | Number of male flower clusters ([1]; 500 ppm in 60% aqueous acetone): 10.8 ± 6.1 | Elongation growth of the Cryptomeria japonica trees versus control group (in words) ([2]; 50 or 500 ppm, aerial application): substantially the same as that in the control group | Effect of inhibiting the differentiation and formation of the male flowers (in words) ([2]; 50 ppm or 500 ppm, aerial application): remarkable effect | Number of male flower clusters ([2]; 50 ppm): 751.3 ± 121.5 | Number of male flower clusters ([2]; 500 ppm): 124.2 ± 55.2
